# Test system: rat bladder muscle strips (detrusor)
# Type: cell-based
compound,measurement,value
CN(C)C(=O)Oc1ccc[n+](C)c1 [pyridostigmine],drop in force from baseline after pyridostigmine,13±6%
same,recovery of the force drop,about 50%

# From patent US20200352923A1 (priority 2017, published 2020)
